Results as given in US12195482B1 (Arcus Biosciences, Inc., priority 2022, dated 2025).

Assays:
recombinant human MER = target: T1, recombinant human MER (Homo sapiens, UniProt Q12866); assay: Biochemical potency, HTRF KinEASE-TK kinase assay; details: 1 nM MER, 700 μM ATP
T1 construct: purchased Invitrogen
T1 sequence (Q12866 21-999): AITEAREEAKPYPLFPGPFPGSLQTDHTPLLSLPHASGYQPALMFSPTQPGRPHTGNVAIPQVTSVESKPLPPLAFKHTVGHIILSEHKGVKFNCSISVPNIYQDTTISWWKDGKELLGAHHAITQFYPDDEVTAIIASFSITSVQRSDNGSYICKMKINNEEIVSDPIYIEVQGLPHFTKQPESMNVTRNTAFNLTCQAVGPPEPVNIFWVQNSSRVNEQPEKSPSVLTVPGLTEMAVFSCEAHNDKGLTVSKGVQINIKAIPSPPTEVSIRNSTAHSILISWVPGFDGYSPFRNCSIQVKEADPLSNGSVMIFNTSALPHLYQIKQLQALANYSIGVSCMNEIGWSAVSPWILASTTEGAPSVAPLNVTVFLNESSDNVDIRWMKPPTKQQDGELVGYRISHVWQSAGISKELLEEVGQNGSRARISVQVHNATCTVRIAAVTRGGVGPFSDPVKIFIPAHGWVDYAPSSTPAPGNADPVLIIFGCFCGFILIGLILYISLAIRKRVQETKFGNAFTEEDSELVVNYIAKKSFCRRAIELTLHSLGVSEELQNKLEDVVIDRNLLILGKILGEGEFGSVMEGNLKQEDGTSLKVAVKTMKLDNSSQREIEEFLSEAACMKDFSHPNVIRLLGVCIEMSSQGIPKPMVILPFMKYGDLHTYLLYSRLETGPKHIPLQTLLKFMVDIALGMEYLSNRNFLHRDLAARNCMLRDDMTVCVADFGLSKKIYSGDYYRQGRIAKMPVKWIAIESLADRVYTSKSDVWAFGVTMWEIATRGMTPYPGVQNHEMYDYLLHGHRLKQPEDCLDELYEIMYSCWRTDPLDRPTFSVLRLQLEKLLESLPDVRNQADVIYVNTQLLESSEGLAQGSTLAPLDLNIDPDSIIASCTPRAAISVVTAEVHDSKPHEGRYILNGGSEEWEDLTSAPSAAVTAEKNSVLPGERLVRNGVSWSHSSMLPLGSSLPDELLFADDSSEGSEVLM
Method in brief: (§1)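 Compounds preincubated 1 h at RT with enzyme in 50 mM HEPES pH 7.4, 10 mM MgCl2, 0.01% BSA, 1 mM DTT; reactions then ran 2 h at RT with 5 nM AXL or 1 nM TYRO3/MER, 800 nM TK substrate-biotin, 700 μM ATP, 1% DMSO. HTRF 665/620 ratio read; percent activity calculated.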

recombinant human TYRO3 = target: T2, recombinant human TYRO3 (Homo sapiens, UniProt Q06418); assay: Biochemical potency, HTRF KinEASE-TK kinase assay; details: 1 nM TYRO3, 700 μM ATP
T2 construct: purchased Invitrogen
T2 sequence (Q06418 41-890): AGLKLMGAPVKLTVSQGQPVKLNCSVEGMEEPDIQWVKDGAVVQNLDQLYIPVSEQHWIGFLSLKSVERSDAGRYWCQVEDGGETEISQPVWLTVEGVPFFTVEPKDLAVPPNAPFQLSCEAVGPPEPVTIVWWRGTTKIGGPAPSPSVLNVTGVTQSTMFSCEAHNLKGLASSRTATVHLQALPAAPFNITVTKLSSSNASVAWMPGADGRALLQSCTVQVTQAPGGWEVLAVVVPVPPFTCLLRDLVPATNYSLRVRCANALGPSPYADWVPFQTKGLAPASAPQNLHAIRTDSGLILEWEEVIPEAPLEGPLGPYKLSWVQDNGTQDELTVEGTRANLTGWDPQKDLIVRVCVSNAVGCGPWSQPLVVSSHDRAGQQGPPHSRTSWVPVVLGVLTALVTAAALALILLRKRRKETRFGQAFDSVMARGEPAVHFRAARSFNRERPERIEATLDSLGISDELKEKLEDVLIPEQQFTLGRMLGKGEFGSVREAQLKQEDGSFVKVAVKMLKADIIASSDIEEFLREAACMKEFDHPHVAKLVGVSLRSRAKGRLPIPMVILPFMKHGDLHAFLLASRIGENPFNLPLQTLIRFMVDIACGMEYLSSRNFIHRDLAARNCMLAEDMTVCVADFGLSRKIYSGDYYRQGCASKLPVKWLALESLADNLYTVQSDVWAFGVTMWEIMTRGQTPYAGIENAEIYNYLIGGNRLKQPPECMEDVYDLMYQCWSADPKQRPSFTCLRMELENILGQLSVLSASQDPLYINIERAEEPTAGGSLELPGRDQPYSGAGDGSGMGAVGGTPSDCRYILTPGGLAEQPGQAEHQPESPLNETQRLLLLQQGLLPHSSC
Method in brief: as §1

Row | SMILES | IC50 (recombinant human MER) [nM] | IC50 (recombinant human TYRO3) [nM]
1 | c1cc(-n2cc(-c3c[nH]c4ncc(-c5ccc6c(c5)CC[C@@H](N5C7COCC5C7)CC6)cc34)cn2)ccn1 [Example 45, 6-[(7S)-2-{3-[1-(Pyridin-4-yl)-1H-pyrazol-4-yl]-1H-pyrrolo[2,3-b]pyridin-5-yl}-6,7,8,9-tetrahydro-5H-benzo[7]annulen-7-yl]-3-oxa-6-azabicyclo[3.1.1]heptane] | > 1000 | > 1000
2 | Cc1cnc(-c2ccc(-c3c[nH]c4ncc(-c5ccc6c(c5)CC[C@@H](N5C7COCC5C7)CC6)cc34)cc2)c(C)n1 [Example 50, 6-[(7S)-2-{3-[4-(3,5-Dimethylpyrazin-2-yl)phenyl]-1H-pyrrolo[2,3-b]pyridin-5-yl}-6,7,8,9-tetrahydro-5H-benzo[7]annulen-7-yl]-3-oxa-6-azabicyclo[3.1.1]heptane] | 100 to 1000 | 100 to 1000
3 | C[C@@H]1CCCN1[C@@]1(C)CCc2ccc(-c3cnc4[nH]nc(-c5ccc(-c6ncco6)cc5)c4c3)cc2CC1 [Example 90, 2-(4-{5-[(7S)-7-Methyl-7-[(2R)-2-methylpyrrolidin-1-yl]-6,7,8,9-tetrahydro-5H-benzo[7]annulen-2-yl]-2H-pyrazolo[3,4-b]pyridin-3-yl}phenyl)-1,3-oxazole] | 100 to 1000 | 100 to 1000
4 | c1cc(-c2ccc(-c3c[nH]c4ncc(-c5ccc6c(c5)CC[C@@H](N5C7COCC5C7)CC6)cc34)cc2)ccn1 [Example 41, 6-[(7S)-2-{3-[4-(Pyridin-4-yl)phenyl]-1H-pyrrolo[2,3-b]pyridin-5-yl}-6,7,8,9-tetrahydro-5H-benzo[7]annulen-7-yl]-3-oxa-6-azabicyclo[3.1.1]heptane] | 100 to 1000 | > 1000
5 | Clc1cccnc1-c1ccc(-c2c[nH]c3ncc(-c4ccc5c(c4)CC[C@@H](N4C6COCC4C6)CC5)cc23)cc1 [Example 43, 6-[(7S)-2-{3-[4-(3-Chloropyridin-2-yl)phenyl]-1H-pyrrolo[2,3-b]pyridin-5-yl}-6,7,8,9-tetrahydro-5H-benzo[7]annulen-7-yl]-3-oxa-6-azabicyclo[3.1.1]heptane] | 100 to 1000 | 100 to 1000
6 | Cc1cnc(-c2ccc(-c3c[nH]c4ncc(-c5ccc6c(c5)CC[C@@](C)(N5CCC[C@H]5C)CC6)cc34)cc2)c(C)n1 [Example 57, 3,5-Dimethyl-2-(4-{5-[(7S)-7-methyl-7-[(2R)-2-methylpyrrolidin-1-yl]-6,7,8,9-tetrahydro-5H-benzo[7]annulen-2-yl]-1H-pyrrolo[2,3-b]pyridin-3-yl}phenyl)pyrazine] | 100 to 1000 | 100 to 1000
7 | c1ccc(-c2ccc(-c3c[nH]c4ncc(-c5ccc6c(c5)CC[C@@H](N5C[C@@H]7C[C@H]5CO7)CC6)cc34)cc2)nc1 [Example 33, (1S,4S)-5-[(7S)-3-[3-(4-Pyridin-2-ylphenyl)-1H-pyrrolo[2,3-b]pyridin-5-yl]-6,7,8,9-tetrahydro-5H-benzo[7]annulen-7-yl]-2-oxa-5-azabicyclo[2.2.1]heptane] | 100 to 1000 | 100 to 1000
8 | COc1ccnc(-c2ccc(-c3c[nH]c4ncc(-c5ccc6c(c5)CC[C@@H](N5C7COCC5C7)CC6)cc34)cc2)c1C [Example 86, 6-[(7S)-3-[3-[4-(4-Methoxy-3-methylpyridin-2-yl)phenyl]-1H-pyrrolo[2,3-b]pyridin-5-yl]-6,7,8,9-tetrahydro-5H-benzo[7]annulen-7-yl]-3-oxa-6-azabicyclo[3.1.1]heptane] | 100 to 1000 | 100 to 1000
9 | CS(=O)(=O)c1ccccc1-c1ccc(-c2c[nH]c3ncc(-c4ccc5c(c4)CC[C@@H](N4C6COCC4C6)CC5)cc23)cc1 [Example 93, 6-[(7S)-2-(3-{2′-Methanesulfonyl-[1,1′-biphenyl]-4-yl}-1H-pyrrolo[2,3-b]pyridin-5-yl)-6,7,8,9-tetrahydro-5H-benzo[7]annulen-7-yl]-3-oxa-6-azabicyclo[3.1.1]heptane] | 100 to 1000 | 100 to 1000
10 | COc1ccnc(-c2ccc(-c3n[nH]c4ncc(-c5ccc6c(c5)CC[C@@H](N5C7COCC5C7)CC6)cc34)cc2)c1C [Example 87, 6-[(7S)-3-[3-[4-(4-Methoxy-3-methylpyridin-2-yl)phenyl]-1H-pyrazolo[3,4-b]pyridin-5-yl]-6,7,8,9-tetrahydro-5H-benzo[7]annulen-7-yl]-3-oxa-6-azabicyclo[3.1.1]heptane] | 100 to 1000 | 100 to 1000
11 | Cc1nncn1-c1ccc(-c2n[nH]c3ncc(-c4ccc5c(c4)CC[C@@H](N4C6COCC4C6)CC5)cc23)cc1 [Example 11, 6-[(7S)-2-{3-[4-(3-Methyl-4H-1,2,4-triazol-4-yl)phenyl]-1H-pyrazolo[3,4-b]pyridin-5-yl}-6,7,8,9-tetrahydro-5H-benzo[7]annulen-7-yl]-3-oxa-6-azabicyclo[3.1.1]heptane] | > 1000 | > 1000

Second part, the molecule after the results:

Row | IC50 (recombinant human MER) [nM] | IC50 (recombinant human TYRO3) [nM] | SMILES
12 | 100 to 1000 | 100 to 1000 | Cc1cnc(-c2ccc(-c3c[nH]c4ncc(-c5ccc6c(c5)CC[C@@H](N5CCCC5)CC6)cc34)cc2)c(C)n1 [Example 59, 3,5-Dimethyl-2-(4-{5-[(7S)-7-(pyrrolidin-1-yl)-6,7,8,9-tetrahydro-5H-benzo[7]annulen-2-yl]-1H-pyrrolo[2,3-b]pyridin-3-yl}phenyl)pyrazine]
13 | < 100 | < 100 | Cc1cccnc1-c1ccc(-c2c[nH]c3ncc(-c4ccc5c(c4)CC[C@@H](N4C6COCC4C6)CC5)cc23)cc1 [Example 1, 6-[(7S)-2-{3-[4-(3-Methylpyridin-2-yl)phenyl]-1H-pyrrolo[2,3-b]pyridin-5-yl}-6,7,8,9-tetrahydro-5H-benzo[7]annulen-7-yl]-3-oxa-6-azabicyclo[3.1.1]heptane]
14 | < 100 | < 100 | Cc1cc(C)c(-c2ccc(-c3n[nH]c4ncc(-c5ccc6c(c5)CC[C@@](C)(N5CCC[C@H]5C)CC6)cc34)cc2)nn1 [Example 78, 4,6-Dimethyl-3-(4-{5-[(7S)-7-methyl-7-[(2R)-2-methylpyrrolidin-1-yl]-6,7,8,9-tetrahydro-5H-benzo[7]annulen-2-yl]-1H-pyrazolo[3,4-b]pyridin-3-yl}phenyl)pyridazine]
15 | < 100 | < 100 | Cc1ccnnc1-c1ccc(-c2c[nH]c3ncc(-c4ccc5c(c4)CC[C@@H](N4C6COCC4C6)CC5)cc23)cc1 [Example 49, 6-[(7S)-2-{3-[4-(4-Methylpyridazin-3-yl)phenyl]-1H-pyrrolo[2,3-b]pyridin-5-yl}-6,7,8,9-tetrahydro-5H-benzo[7]annulen-7-yl]-3-oxa-6-azabicyclo[3.1.1]heptane]
16 | < 100 | < 100 | Cc1cncnc1-c1ccc(-c2c[nH]c3ncc(-c4ccc5c(c4)CC[C@@H](N4C6COCC4C6)CC5)cc23)cc1 [Example 47, 6-[(7S)-2-{3-[4-(5-Methylpyrimidin-4-yl)phenyl]-1H-pyrrolo[2,3-b]pyridin-5-yl}-6,7,8,9-tetrahydro-5H-benzo[7]annulen-7-yl]-3-oxa-6-azabicyclo[3.1.1]heptane]
